Our source for the melting point and pest or weed control values is US10925283B2, “Microbiocidal phenylamidine derivatives” (SYNGENTA PARTICIPATIONS AG, priority 2016, dated 2021).

In data set [1] the test system is Blumeria graminis f. sp. tritici (Erysiphe graminis f. sp. tritici). Kind of data set: Blumeria graminis f. sp. tritici / wheat / leaf disc preventative (powdery mildew on wheat). The data set is classed as in vivo. The following applies: foliar, wheat leaf segments cv. Kanzler, inoculated 1 day after application, assessed 6-8 days after application, read-out: control of Blumeria graminis f. sp. tritici (percent disease control compared to untreated). A digest of the protocol: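 Wheat cv. Kanzler leaf segments on agar were sprayed with formulated compound in water, then inoculated with powdery mildew 1 day after application. Incubation was at 20° C, 60% rh, 24 h dark then 12 h light/12 h dark. Percent disease control versus untreated was scored 6-8 days after application.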

The test system of data set [2] is Puccinia recondita f. sp. tritici. Kind of data set: Puccinia recondita f. sp. tritici / wheat / leaf disc preventative (brown rust). The note with it: foliar, wheat leaf segments cv. Kanzler, inoculated 1 day after application, assessed 7-9 days after application, read-out: control of Puccinia recondita f. sp. tritici (percent disease control compared to untreated). The data set is classed as in vivo. A digest of the protocol:
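Leaf segments of wheat cv. Kanzler on agar were sprayed with diluted formulated compound and inoculated with spores 1 day later. Kept at 19° C, 75% rh, 12 h light/12 h dark. Percent disease control versus untreated assessed 7-9 days after application.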

For data set [3] the test system is unchanged. Kind of data set: Puccinia recondita f. sp. tritici / wheat / leaf disc curative (brown rust). It counts as in vivo. The following applies: foliar, wheat leaf segments cv. Kanzler, compound applied 1 day after inoculation, assessed 6-8 days after application, read-out: control of Puccinia recondita f. sp. tritici (percent disease control compared to untreated). The gist of the method:
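Curative test: leaf segments of wheat cv. Kanzler on agar were inoculated with spores and held dark at 19 °C, 75% rh; formulated compound in water was applied 1 day after inoculation. Segments were then kept at 19 °C, 75% rh under 12 h light/12 h dark, and percent disease control versus untreated was scored 6-8 days after application.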

Data set [4] deals with Phakopsora pachyrhizi. Put plainly: Phakopsora pachyrhizi / soybean / preventative (soybean rust). The data set is classed as in vivo. The following applies: foliar, soybean leaf disks, inoculated one day after application, assessed 12-14 days after application, read-out: control of Phakopsora pachyrhizi (percent disease control compared to untreated).

Take `CCN(C)/C=N/c1cc(OC)c(C(O)(CS(=O)(=O)c2ccccc2)C(F)(F)F)cc1C` (centres unmarked) [E.065, N′-[4-[1-(benzenesulfonylmethyl)-2,2,2-trifluoro-1-hydroxy-ethyl]-5-methoxy-2-methyl-phenyl]-N-ethyl-N-methyl-formamidine]: the melting point (as a rule, the temperature of the solid-liquid transition) lay in the range of 103 to 105 °C. In data set [1], the pest or weed control at 200 ppm was at least 80%. The pest or weed control at 200 ppm in data set [2] was at least 80%. Besides, the pest or weed control at 200 ppm in data set [3] is at least 80%.
Consider `CCN(C)/C=N/c1cc(OC)c(C(O)(C(F)(F)F)C(C)(C)C#N)cc1C` (centres unmarked) [E.060, N′-[4-[2-cyano-1-hydroxy-2-methyl-1-(trifluoromethyl)propyl]-5-methoxy-2-methyl-phenyl]-N-ethyl-N-methyl-formamidine], for which the melting point lay in the range of 90 to 93 °C. Also, the pest or weed control at 200 ppm in data set [4] was at least 80%. Further, in data set [1], the pest or weed control at 200 ppm was at least 80%. The pest or weed control at 200 ppm in data set [2] was at least 80%. For the same compound, the pest or weed control at 200 ppm in data set [3] is at least 80%.
Turning to `CCN(C)/C=N/c1cc(OC)c(C(O)(CC#N)C(F)(F)F)cc1C` (centres unmarked) [E.061, N′-[4-[1-(cyanomethyl)-2,2,2-trifluoro-1-hydroxy-ethyl]-5-methoxy-2-methyl-phenyl]-N-ethyl-N-methyl-formamidine], the melting point was 86 to 88 °C. Moreover, the pest or weed control at 200 ppm in data set [1] is at least 80%. Also, in data set [2], the pest or weed control at 200 ppm is at least 80%. Further, the pest or weed control at 200 ppm in data set [3] is at least 80%.
`CCN(C)C=Nc1cc(OC)c(C(O)(C/C(=N/OC)c2ccccc2)C(F)(F)F)cc1C` (centres unmarked) [E.059, N-ethyl-N′-[4-[(3Z)-1-hydroxy-3-methoxyimino-3-phenyl-1-(trifluoromethyl)propyl]-5-methoxy-2-methyl-phenyl]-N-methyl-formamidine] yielded a melting point of 105 to 107 °C. In addition, in data set [4], the pest or weed control at 200 ppm was at least 80%. The pest or weed control at 200 ppm in data set [1] was at least 80%. Besides, the pest or weed control at 200 ppm in data set [2] was at least 80%. In addition, in data set [3], the pest or weed control at 200 ppm was at least 80%.
As to `CCN(C)/C=N/c1cc(OC)c(C(O)(C2=COCCC2)C(F)(F)F)cc1C` (centres unmarked) [E.074, N′-[4-[1-(3,4-dihydro-2H-pyran-5-yl)-2,2,2-trifluoro-1-hydroxy-ethyl]-5-methoxy-2-methyl-phenyl]-N-ethyl-N-methyl-formamidine], the melting point lay within 115 to 116.6 °C. The pest or weed control at 200 ppm in data set [1] is at least 80%. Besides, the pest or weed control at 200 ppm in data set [2] is at least 80%. Besides, in data set [3], the pest or weed control at 200 ppm was at least 80%.
`CCN(C)/C=N/c1cc(OC)c(C(O)(CS(=O)(=O)Cc2ccccc2)C(F)(F)F)cc1C` (centres unmarked) [E.064, N′-[4-[1-(benzylsulfonylmethyl)-2,2,2-trifluoro-1-hydroxy-ethyl]-5-methoxy-2-methyl-phenyl]-N-ethyl-N-methyl-formamidine] had a melting point of 56 to 58 °C. Besides, the pest or weed control at 200 ppm in data set [1] is at least 80%. In data set [2], the pest or weed control at 200 ppm was at least 80%. For the same compound, the pest or weed control at 200 ppm in data set [3] is at least 80%.
